Laboratory results published in PubChem BioAssay AID342 (DTP/NCI, 2004).
Several values for one entry are separate records, joined by “and”; a condition that tells them apart may be missing. Identical values can stand only once.

System: Swiss mice, Sarcoma 180 sc, mean tumor weight T/C
Assay: NCI In Vivo Anticancer Drug Screen. Data for tumor model Sarcoma 180 (subcutaneous) in Swiss mice
Details: endpoint: mean tumor weight, higher = larger tumour
How it was run: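 T/C ratio: treated over vehicle-treated controls, measuring survival or tumor size in transplanted-tumor mice.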

## Nc1cc(SCc2ccccc2)nc(N)n1
dose: 18.75 mg/kg/injection, schedule: Q#A X014 (ip), vehicle: methylcellulose (MC)
  T/C: 52 % of control
dose: 37.5 mg/kg/injection, schedule: Q#A X014 (ip), vehicle: methylcellulose (MC)
  T/C: 70 % of control
dose: 66.5 mg/kg/injection, schedule: Q#A X014 (ip), vehicle: methylcellulose (MC)
  T/C: 29 % of control
dose: 75.0 mg/kg/injection, schedule: Q#A X014 (ip), vehicle: methylcellulose (MC)
  T/C: 68 % of control
dose: 100.0 mg/kg/injection, schedule: Q#A X014 (ip), vehicle: methylcellulose (MC)
  T/C: 40 % of control
dose: 225.0 mg/kg/injection, schedule: Q#A X014 (ip), vehicle: methylcellulose (MC)
  T/C: 35 % of control

## Cc1cc2c(c3oc(C4(C)OC4C4OC4C)cc(=O)c13)C(=O)c1c(O)c(C3CC(C)(N(C)C)C(O)C(C)O3)cc(C3CC(N(C)C)C(O)C(C)O3)c1C2=O (centres undefined)
dose: 0.05 mg/kg/injection, schedule: Q01DX007 (sc), vehicle: other
  T/C: 100 % of control
dose: 0.1 mg/kg/injection, schedule: Q01DX007 (sc), vehicle: other
  T/C: 79 % of control

## CC(=O)NNC(=O)c1ccccn1
dose: 37.5 mg/kg/injection, schedule: Q01DX007 (ip), vehicle: water
  T/C: 112 % of control
dose: 75.0 mg/kg/injection, schedule: Q01DX007 (ip), vehicle: water
  T/C: 104 % of control
dose: 100.0 mg/kg/injection, schedule: Q01DX007 (ip), vehicle: water
  T/C: 89 % of control
dose: 200.0 mg/kg/injection, schedule: Q01DX007 (ip), vehicle: water
  T/C: 98 % of control

## [O]=[V]
dose: 7.5 mg/kg/injection, schedule: Q01DX007 (sc), vehicle: olive oil, sesame oil, peanut oil
  T/C: 94 % of control
dose: 15.0 mg/kg/injection, schedule: Q01DX007 (sc), vehicle: olive oil, sesame oil, peanut oil
  T/C: 89 % of control
dose: 30.0 mg/kg/injection, schedule: Q01DX007 (sc), vehicle: olive oil, sesame oil, peanut oil
  T/C: 100 % of control

## CCCCCCCCCCCCCCCCCC1=NCCN1CCN
dose: 22.0 mg/kg/injection, schedule: Q#A X014 (ip), vehicle: saline
  T/C: 74 % of control and 84 % of control
dose: 50.0 mg/kg/injection, schedule: Q#A X014 (ip), vehicle: saline
  T/C: 33 % of control

## c1ccc2nc3ccccc3c-2cc1
dose: 62.5 mg/kg/injection, schedule: Q01DX007 (ip), vehicle: saline
  T/C: 118 % of control
dose: 125.0 mg/kg/injection, schedule: Q01DX007 (ip), vehicle: saline
  T/C: 106 % of control
dose: 250.0 mg/kg/injection, schedule: Q01DX007 (ip), vehicle: saline
  T/C: 113 % of control
dose: 750.0 mg/kg/injection, schedule: Q01DX007 (ip), vehicle: saline
  T/C: 85 % of control
dose: 1000.0 mg/kg/injection, schedule: Q01DX007 (ip), vehicle: saline
  T/C: 68 % of control

## CC(C)[C@]1(O)CC[C@H]2[C@@H]3CCc4cc(O)ccc4[C@H]3CC[C@@]21C
dose: 2.5 mg/kg/injection, schedule: Q01DX007 (sc), vehicle: steriod suspending solution
  T/C: 92 % of control
dose: 5.0 mg/kg/injection, schedule: Q01DX007 (sc), vehicle: steriod suspending solution
  T/C: 60 % of control
dose: 10.0 mg/kg/injection, schedule: Q01DX007 (sc), vehicle: steriod suspending solution
  T/C: 95 % of control

## O=P(Oc1ccccc1)(OP(=O)(Oc1ccccc1)N(CCCl)CCCl)N(CCCl)CCCl (centres undefined)
dose: 12.5 mg/kg/injection, schedule: Q#A X014 (ip), vehicle: other
  T/C: 85 % of control
dose: 25.0 mg/kg/injection, schedule: Q#A X014 (ip), vehicle: other
  T/C: 76 % of control
dose: 50.0 mg/kg/injection, schedule: Q#A X014 (ip), vehicle: other
  T/C: 112 % of control

## S=P(N1CC1)(N1CC1)N1CC1
dose: 0.43 mg/kg/injection, schedule: Q01DX007 (ip), vehicle: carboxymethylcellulose (CMC)
  T/C: 91 % of control
dose: 0.87 mg/kg/injection, schedule: Q01DX007 (ip), vehicle: carboxymethylcellulose (CMC)
  T/C: 85 % of control
dose: 1.75 mg/kg/injection, schedule: Q01DX007 (ip), vehicle: carboxymethylcellulose (CMC)
  T/C: 104 % of control
dose: 3.5 mg/kg/injection, schedule: Q01DX007 (ip), vehicle: carboxymethylcellulose (CMC)
  T/C: 65 % of control
dose: 218.5 mg/kg/injection, schedule: Q#A X014 (ip), vehicle: carboxymethylcellulose (CMC)
  T/C: 108 % of control
dose: 437.5 mg/kg/injection, schedule: Q#A X014 (ip), vehicle: carboxymethylcellulose (CMC)
  T/C: 110 % of control
dose: 875.0 mg/kg/injection, schedule: Q#A X014 (ip), vehicle: carboxymethylcellulose (CMC)
  T/C: 46 % of control

## O=C(O)CCCNC(=O)c1ccc([N+](=O)[O-])cc1
dose: 125.0 mg/kg/injection, schedule: Q01DX007 (ip), vehicle: methylcellulose (MC)
  T/C: 67 % of control
dose: 250.0 mg/kg/injection, schedule: Q01DX007 (ip), vehicle: methylcellulose (MC)
  T/C: 78 % of control

## CC(=O)[C@H]1CC[C@H]2[C@@H]3C[C@H](C)C4=CC(=O)CC[C@]4(C)[C@H]3C(=O)C[C@]12C
dose: 25.0 mg/kg/injection, schedule: Q#A X014 (oral), vehicle: steriod suspending solution
  T/C: 72 % of control
dose: 62.5 mg/kg/injection, schedule: Q#A X014 (oral), vehicle: steriod suspending solution
  T/C: 55 % of control
dose: 110.0 mg/kg/injection, schedule: Q#A X014 (oral), vehicle: steriod suspending solution
  T/C: 86 % of control

## CS(=O)(=O)OCCC(=O)N1CCN(C(=O)CCOS(C)(=O)=O)CC1
dose: 12.5 mg/kg/injection, schedule: Q01DX007 (ip), vehicle: saline
  T/C: 92 % of control
dose: 25.0 mg/kg/injection, schedule: Q01DX007 (ip), vehicle: saline
  T/C: 76 % of control and 100 % of control
dose: 67.0 mg/kg/injection, schedule: Q#A X014 (ip), vehicle: methylcellulose (MC)
  T/C: 8 % of control and 23 % of control
dose: 150.0 mg/kg/injection, schedule: Q#A X014 (ip), vehicle: methylcellulose (MC)
  T/C: 7 % of control

## CCCCC(=O)OCC1OC(n2cnc3c(=S)nc[nH]c32)C(OC(=O)CCCC)C1OC(=O)CCCC (centres undefined)
dose: 75.0 mg/kg/injection, schedule: Q01DX007 (ip), vehicle: carboxymethylcellulose (CMC)
  T/C: 69 % of control
dose: 125.0 mg/kg/injection, schedule: Q01DX007 (ip), vehicle: carboxymethylcellulose (CMC)
  T/C: 34 % of control
dose: 220.0 mg/kg/injection, schedule: Q01DX007 (ip), vehicle: carboxymethylcellulose (CMC)
  T/C: 96 % of control
dose: 335.0 mg/kg/injection, schedule: Q01DX007 (ip), vehicle: carboxymethylcellulose (CMC)
  T/C: 81 % of control
dose: 750.0 mg/kg/injection, schedule: Q01DX007 (ip), vehicle: carboxymethylcellulose (CMC)
  T/C: 43 % of control

## Cc1nc2nc(N)nc(N)c2nc1C
dose: 10.0 mg/kg/injection, schedule: Q01DX007 (ip), vehicle: carboxymethylcellulose (CMC)
  T/C: 89 % of control
dose: 11.46 mg/kg/injection, schedule: Q01DX007 (ip), vehicle: carboxymethylcellulose (CMC)
  T/C: 106 % of control
dose: 20.0 mg/kg/injection, schedule: Q01DX007 (ip), vehicle: carboxymethylcellulose (CMC)
  T/C: 77 % of control
dose: 22.92 mg/kg/injection, schedule: Q01DX007 (ip), vehicle: carboxymethylcellulose (CMC)
  T/C: 77 % of control
dose: 40.0 mg/kg/injection, schedule: Q01DX007 (ip), vehicle: carboxymethylcellulose (CMC)
  T/C: 68 % of control
dose: 45.85 mg/kg/injection, schedule: Q01DX007 (ip), vehicle: carboxymethylcellulose (CMC)
  T/C: 86 % of control
dose: 80.0 mg/kg/injection, schedule: Q01DX007 (ip), vehicle: carboxymethylcellulose (CMC)
  T/C: 81 % of control
dose: 91.7 mg/kg/injection, schedule: Q01DX007 (ip), vehicle: carboxymethylcellulose (CMC)
  T/C: 51 % of control

## COC1=C(N(C)C)C(=O)c2ncccc2C1=O
dose: 12.5 mg/kg/injection, schedule: Q01DX007 (ip), vehicle: water
  T/C: 86 % of control
dose: 25.0 mg/kg/injection, schedule: Q01DX007 (ip), vehicle: water
  T/C: 72 % of control
dose: 50.0 mg/kg/injection, schedule: Q01DX007 (ip), vehicle: water
  T/C: 92 % of control

## O=c1cn[nH]c(=O)[nH]1
dose: 62.5 mg/kg/injection, schedule: Q#A X014 (ip), vehicle: carboxymethylcellulose (CMC)
  T/C: 103 % of control
dose: 125.0 mg/kg/injection, schedule: Q#A X014 (ip), vehicle: carboxymethylcellulose (CMC)
  T/C: 77 % of control
dose: 250.0 mg/kg/injection, schedule: Q#A X014 (ip), vehicle: carboxymethylcellulose (CMC)
  T/C: 73 % of control
dose: 500.0 mg/kg/injection, schedule: Q#A X014 (ip), vehicle: carboxymethylcellulose (CMC)
  T/C: 45 % of control
